# Results: US20250320184A1 (SIRONAX LTD., priority 2022, published 2025)
# Molecular target: T1, SARM1 (50-724) (Homo sapiens, UniProt Q6SZW1)
# T1 sequence (Q6SZW1 50-724): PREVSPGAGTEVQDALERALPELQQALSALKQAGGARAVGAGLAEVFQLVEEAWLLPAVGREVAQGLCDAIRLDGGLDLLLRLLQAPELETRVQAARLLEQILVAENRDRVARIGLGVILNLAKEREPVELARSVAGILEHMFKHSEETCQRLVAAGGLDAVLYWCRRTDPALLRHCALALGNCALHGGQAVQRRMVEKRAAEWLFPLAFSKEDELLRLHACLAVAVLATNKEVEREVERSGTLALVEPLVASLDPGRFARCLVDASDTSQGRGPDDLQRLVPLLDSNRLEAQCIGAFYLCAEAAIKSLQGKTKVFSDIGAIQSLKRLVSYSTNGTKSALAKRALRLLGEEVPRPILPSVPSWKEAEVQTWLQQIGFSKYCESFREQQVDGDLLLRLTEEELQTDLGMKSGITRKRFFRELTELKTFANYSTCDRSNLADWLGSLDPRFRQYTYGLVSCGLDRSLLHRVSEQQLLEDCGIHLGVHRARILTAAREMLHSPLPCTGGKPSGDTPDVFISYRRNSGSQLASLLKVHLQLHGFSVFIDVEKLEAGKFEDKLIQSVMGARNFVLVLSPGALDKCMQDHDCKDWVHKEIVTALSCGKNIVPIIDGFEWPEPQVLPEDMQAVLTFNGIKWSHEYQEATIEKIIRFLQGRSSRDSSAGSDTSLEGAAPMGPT
# Test: biochemical
# Description: An enzymatic assay was performed in a 384-well plate using Dulbecco's phosphate-buffered saline (PBS) as the reaction buffer. […] The reaction was initiated by adding a mixture of 200 μM nicotinamide mononucleotide (NMN) as activator and 100 μM NAD^+ as substrate. After 1 h of incubation at room temperature, the reaction was terminated with 10 times volume of 70% acetonitrile, then centrifuged at 3800 rpm for 10 min.
row,Structure (SMILES),IC50 [nM]
1,"CC(Nc1ccc2nc[nH]c(=O)c2n1)c1c(Cl)ccc(F)c1Cl (racemic) [Compound 259, 6-((1-(2,6-dichloro-3-fluorophenyl)ethyl)amino)pyrido[3,2-d]pyrimidin-4(3H)-one]",< 100
2,"Cc1n[nH]c2cc(NC(C)c3nc(Cl)c(Cl)s3)ccc12 (racemic) [Compound 261, N-(1-(4,5-dichlorothiazol-2-yl)ethyl)-3-methyl-1H-indazol-6-amine]",< 100
3,"COc1nccc2ccc(NC(C)c3nc4c(s3)CN(C(=O)OC(C)(C)C)CC4)cc12 (racemic) [Compound 262, tert-butyl 2-(1-((1-methoxyisoquinolin-7-yl)amino)ethyl)-6,7-dihydrothiazolo[5,4-c]pyridine-5(4H)-carboxylate]",100 to 500
4,"CC(Nc1ccc2c(c1)nc(C(N)=O)n2C)c1c(Cl)ccc(F)c1Cl (racemic) [Compound 263, 5-((1-(2,6-dichloro-3-fluorophenyl)ethyl)amino)-1-methyl-1H-benzo[d]imidazole-2-carboxamide]",< 100
5,"CC(Nc1ccc2c(c1)NC(=O)C2(C)C)c1cncc(Cl)c1Cl (racemic) [Compound 267, 6-((1-(4,5-dichloropyridin-3-yl)ethyl)amino)-3,3-dimethylindolin-2-one]",< 100
6,"CC1Cc2ccc(NS(=O)(=O)c3cccc(Cl)c3Cl)cc2NC1=O (racemic) [Compound 269, 2,3-dichloro-N-(3-methyl-2-oxo-3,4-dihydro-1H-quinolin-7-yl)benzenesulfonamide]",< 100
7,"CC(Nc1cc(F)c2nc[nH]c(=O)c2c1)c1nc(Cl)c(Cl)s1 (racemic) [Compound 271, 6-((1-(4,5-dichlorothiazol-2-yl)ethyl)amino)-8-fluoroquinazolin-4(3H)-one]",< 100
8,"CCC(Nc1ccc2c(OC)n[nH]c(=O)c2c1)c1nc(Cl)c(Cl)s1 (racemic) [Compound 272, 7-((1-(4,5-dichlorothiazol-2-yl)propyl)amino)-4-methoxyphthalazin-1(2H)-one]",< 100
9,"CC1(C)CC(O)c2cc(NS(=O)(=O)c3cccc(Cl)c3Cl)ccc21 (racemic) [Compound 274, 2,3-dichloro-N-(3-hydroxy-1,1-dimethyl-2,3-dihydro-1H-inden-5-yl)benzenesulfonamide]",< 100
10,"Cc1n[nH]c(=O)c2cc(NC(C)c3cncc(Cl)c3Cl)ccc12 (racemic) [Compound 275, 7-((1-(4,5-dichloropyridin-3-yl)ethyl)amino)-4-methylphthalazin-1(2H)-one]",< 100
11,"CC(Nc1ccc2c(c1)C(=O)NC2(C)C)c1nc(Cl)c(Cl)s1 (racemic) [Compound 278, 6-[1-(4,5-dichlorothiazol-2-yl)ethylamino]-3,3-dimethyl-isoindolin-1-one]",< 100
12,"CC(Nc1ccc2c(c1)c(C(=O)NCCO)nn2C)c1c(Cl)ccc(F)c1Cl (racemic) [Compound 282, 5-((1-(2,6-dichloro-3-fluorophenyl)ethyl)amino)-N-(2-hydroxyethyl)-1-methyl-1H-indazol-3-carboxamide]",< 100
13,"CC(=O)NC1CCCc2ccc(NS(=O)(=O)c3cccc(Cl)c3Cl)cc21 (racemic) [Compound 283, N-(7-((2,3-dichlorophenyl)sulfonamido)-1,2,3,4-tetrahydronaphthalen-1-yl)acetamide]",< 100
14,"CC(Nc1cc(F)c2ncn(CCO)c(=O)c2c1)c1nc(Cl)c(Cl)s1 (racemic) [Compound 297, 6-((1-(4,5-dichlorothiazol-2-yl)ethyl)amino)-8-fluoro-3-(2-hydroxyethyl)quinazolin-4(3H)-one]",< 100
15,"CC1(C)CC(C#N)c2cc(NS(=O)(=O)c3cccc(Cl)c3Cl)ccc21 (racemic) [Compound 298, 2,3-dichloro-N-(3-cyano-1,1-dimethyl-2,3-dihydro-1H-inden-5-yl)benzenesulfonamide]",< 100
16,"Cc1nn(CCO)c2cc(NC(C)c3nc(Cl)c(Cl)s3)ccc12 (racemic) [Compound 301, 2-(6-((1-(4,5-dichlorothiazol-2-yl)ethyl)amino)-3-methyl-1H-indazol-1-yl)ethan-1-ol]",< 100
17,"CC(Nc1ccc2ccn(CCO)c(=O)c2c1)c1nc(Cl)c(Cl)s1 (racemic) [Compound 305, 7-((1-(4,5-dichlorothiazol-2-yl)ethyl)amino)-2-(2-hydroxyethyl)isoquinolin-1(2H)-one]",< 100
18,"CC(Nc1ccc2c(c1)c(C(N)=O)nn2C)c1nc(Cl)c(Cl)s1 (racemic) [Compound 310, 5-((1-(4,5-dichlorothiazol-2-yl)ethyl)amino)-1-methyl-1H-indazole-3-carboxamide]",< 100
19,"Cc1c2ccc(NC(C)c3nc(Cl)c(Cl)s3)cc2nn1CC(N)=O (racemic) [Compound 312A, 2-(6-((1-(4,5-dichlorothiazol-2-yl)ethyl)amino)-3-methyl-2H-indazol-2-yl)acetamide]",< 100
20,"CC(Nc1ccc2ccn(CC(N)=O)c(=O)c2c1)c1nn(C)c(C2CC2)c1Cl (racemic) [Compound 315, 2-(7-((1-(4-chloro-5-cyclopropyl-1-methyl-1H-pyrazol-3-yl)ethyl)amino)-1-oxoisoquinolin-2(1H)-yl)acetamide]",< 100
21,"Cc1n[nH]c(=O)c2cc(NC(C)c3nn(C)c(Cl)c3Cl)cc(F)c12 (racemic) [Compound 316, 7-((1-(4,5-dichloro-1-methyl-1H-pyrazol-3-yl)ethyl)amino)-5-fluoro-4-methylphthalazin-1(2H)-one]",< 100
22,"CC(Nc1ccc2c(c1)N(C(=O)CC(N)=O)CC2(C)C)c1sc(Cl)nc1Cl (racemic) [Compound 317, 3-(6-((1-(2,4-dichlorothiazol-5-yl)ethyl)amino)-3,3-dimethylindolin-1-yl)-3-oxopropanamide]",< 100

# More lines, now with the values ahead:
row,IC50 [nM],Structure (SMILES)
1,100 to 500,"Cc1snc(C(C)Nc2ccc3nc[nH]c(=O)c3c2)c1Cl (racemic) [Compound 260, 6-((1-(4-chloro-5-methylisothiazol-3-yl)ethyl)amino)quinazolin-4(3H)-one]"
2,< 100,"Cc1n[nH]c(=O)c2cc(NC(C)c3nccc(Cl)c3Cl)ccc12 (racemic) [Compound 266, 7-((1-(3,4-dichloropyridin-2-yl)ethyl)amino)-4-methylphthalazin-1(2H)-one]"
3,< 100,"CC(Nc1ccc2c(c1)N(C(N)=O)CC2(C)C)c1nc(Cl)c(Cl)s1 (racemic) [Compound 276, 6-((1-(4,5-dichlorothiazol-2-yl)ethyl)amino)-3,3-dimethylindoline-1-carboxamide]"
4,< 100,"CC(Nc1ccc2c(c1)N(CCO)C(=O)C2(C)C)c1nc(Cl)c(Cl)s1 (racemic) [Compound 277, 6-((1-(4,5-dichlorothiazol-2-yl)ethyl)amino)-1-(2-hydroxyethyl)-3,3-dimethylindolin-2-one]"
5,< 100,"CC(Nc1ccc2ccn(CC(N)=O)c(=O)c2c1)c1nc(Cl)c(Cl)s1 (racemic) [Compound 290, 2-(7-((1-(4,5-dichlorothiazol-2-yl)ethyl)amino)-1-oxoisoquinolin-2(1H)-yl)acetamide]"
6,< 100,"Cc1nn(CC(N)=O)c(=O)c2cc(NC(C)c3c(Cl)ccc(F)c3Cl)ccc12 (racemic) [Compound 300, 2-(7-((1-(2,6-dichloro-3-fluorophenyl)ethyl)amino)-4-methyl-1-oxophthalazin-2(1H)-yl)acetamide]"
7,< 100,"O=C1NC(CO)CCc2ccc(NS(=O)(=O)c3cccc(Cl)c3Cl)cc21 (racemic) [Compound 304A, 2,3-dichloro-N-(3-(hydroxymethyl)-1-oxo-2,3,4,5-tetrahydro-1H-benzo[c]azepin-8-yl)benzenesulfonamide]"
8,< 100,"Cc1c2ccc(NC(C)c3nc(Cl)c(Cl)s3)cc2nn1CCO (racemic) [Compound 307, 2-(6-((1-(4,5-dichlorothiazol-2-yl)ethyl)amino)-3-methyl-2H-indazol-2-yl)ethan-1-ol]"
9,100 to 500,"CC(Nc1ccc2cc[nH]c(=O)c2c1)c1nc(Cl)n(C)c1Cl (racemic) [Compound 308, 7-((1-(2,5-dichloro-1-methyl-1H-imidazol-4-yl)ethyl)amino)isoquinolin-1(2H)-one]"
10,< 100,"Cc1n[nH]c(=O)c2nc(NC(C)c3nn(C)c(Cl)c3Cl)ccc12 (racemic) [Compound 311, 2-((1-(4,5-dichloro-1-methyl-1H-pyrazol-3-yl)ethyl)amino)-5-methylpyrido[2,3-d]pyridazin-8(7H)-one]"
11,< 100,"Cc1n[nH]c(=O)c2nc(NC(C)c3c(Cl)ccc(F)c3Cl)ccc12 (racemic) [Compound 314, 2-((1-(2,6-dichloro-3-fluorophenyl)ethyl)amino)-5-methylpyrido[2,3-d]pyridazin-8(7H)-one]"
12,< 100,"CC(Nc1cc(F)c2c(c1)C(=O)NC2(C)C)c1nc(Cl)c(Cl)s1 (racemic) [Compound 318, 6-((1-(4,5-dichlorothiazol-2-yl)ethyl)amino)-4-fluoro-3,3-dimethylisoindolin-1-one]"
13,< 100,"CC(Nc1ccc2cc[nH]c(=O)c2c1)c1nn(C2CC2)c(Cl)c1Cl (racemic) [Compound 321, 7-((1-(4,5-dichloro-1-cyclopropyl-1H-pyrazol-3-yl)ethyl)amino)isoquinolin-1(2H)-one]"
